From patent US8507676B2, “Heterocyclic oxime compounds” (Novartis AG, priority 2009, dated 2013)

How the values were obtained:
[1] = target: c-MET receptor tyrosine kinase, GST-c-MET(969-1390) (Homo sapiens (Human), UniProt P08581); assay: EPK c-MET profiling assay (LanthaScreen TR-FRET kinase assay); type: biochemical; details: recombinant GST-c-MET(969-1390), 2 μM ATP, 60 minutes at room temperature; read-out: c-Met biochem (IC50 nM)
Description: A number of compounds of the present invention were assayed in an antibody based kinase phosphorylation assay as follows.
EPK c-MET Profiling Assay:
The EPK kinase assay for c-MET receptor tyrosine kinase was developed, using the purified recombinant GST-fusion protein, containing the cytoplasmic domain of the enzyme.
The kinase assay is based on the LanthaScreen™ technology. LanthaScreen™ is the detection of Time-Resolved Fluorescence Resonance Energy Transfer (TR-FRET) using lanthanide chelates to measure interactions between various binding partners. In a TR-FRET kinase assay, a long-lifetime lanthanide donor species is conjugated to an antibody that specifically binds to a phosphorylated product of a kinase reaction that is labeled with a suitable acceptor fluorophore. This antibody-mediated interaction brings the lanthanide donor and the acceptor into proximity such that resonance energy transfer can take place, resulting in a detectable increase in the FRET signal.
The kinase reactions were performed in 384 well microtiter plates in a total reaction volume of 10.05 μL. […]
Subsequently 5 μL of detection mix (50 mM Tris/HCl, 2 mM DTT, 0.05% Tween20, 20 μM sodium orthovanadate, 1% BSA, 1 nM Tb-PY20 antibody) were added to the stopped reactions. After 45 minutes incubation in dark at room temperature, the plates were measured in a Perkinelmer Envision fluorescence reader.

[2] = stability of the isolated compound at nucleophiles such as methanol; type: physicochemical; details: degrades into starting material 75-R
Description: Previously prepared (E)-1-(3-(1-(5,7-difluoroquinolin-6-yl)ethyl)-[1,2,4]triazolo[4,3-b]pyridazin-6-yl)ethanone oxime (75-R, 100 mg, 0.271 mmol) in anhydrous THF (8 mL) was added diphosgene (0.1 mL, 0.829 mmol) dropwise at 0° C., and the reaction mixture was heated at 50° C. for 4 hr. Oil bath was removed, and the reaction mixture was cooled in an ice-water bath. An ammonia solution (0.5 N in dioxane, 8.0 mL, 4.0 mmol) was added dropwise. The temperature was allowed to rise to rt naturally, and the reaction mixture was stirred at rt overnight. Solvent was evaporated, and the residue was purified by column chromatography (8% methanol in ethyl acetate as eluent) to afford 64 mg (45.8% yield) of title compound as white solid, which was unstable at nucleophiles such as methanol, and was pro to degrade into starting material 75-R. ^1H-NMR (400 MHz, DMSO-d6) δ ppm 8.96 (d, 1H), 8.44 (d, 1H), 8.34 (d, 1H), 8.10 (d, 1H), 7.56-7.74 (m, 2H), 7.34 (s br, 2H), 5.27 (q, 1H), 2.02 (d, 3H), 2.03 (s, 3H). LCMS (method B): [MH]^+=412, tR=2.25 min.

Chain of c-MET receptor tyrosine kinase, GST-c-MET(969-1390) (P08581 969-1390): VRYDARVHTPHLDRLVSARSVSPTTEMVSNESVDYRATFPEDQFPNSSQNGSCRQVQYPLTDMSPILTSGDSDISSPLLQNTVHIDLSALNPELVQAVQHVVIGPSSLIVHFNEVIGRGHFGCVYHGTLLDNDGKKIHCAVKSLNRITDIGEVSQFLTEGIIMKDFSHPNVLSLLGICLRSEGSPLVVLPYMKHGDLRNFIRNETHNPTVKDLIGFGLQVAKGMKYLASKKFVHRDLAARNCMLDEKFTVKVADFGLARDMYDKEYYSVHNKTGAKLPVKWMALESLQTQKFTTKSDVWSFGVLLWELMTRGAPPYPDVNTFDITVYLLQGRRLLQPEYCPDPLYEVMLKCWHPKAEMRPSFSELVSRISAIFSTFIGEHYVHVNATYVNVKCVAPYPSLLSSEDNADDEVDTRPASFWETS

| IC50 [1] | stability at nucleophiles such as methanol [2] | Structure (SMILES) |
| --- | --- | --- |
| 1.5 nM |  | C/C(=N\OCCO)c1ccc2nnc(C(F)(F)c3ccc4ncccc4c3)n2n1 [Example 50, (E)-1-(3-(Difluoro(quinolin-6-yl)methyl)-[1,2,4]triazolo[4,3-b]pyridazin-6-yl)ethanone O-2-hydroxyethyl oxime] |
|  | unstable | C/C(=N\OC(N)=O)c1ccc2nnc([C@H](C)c3c(F)cc4ncccc4c3F)n2n1 [Example 77-R, (R,E)-1-(3-(1-(5,7-difluoroquinolin-6-yl)ethyl)-[1,2,4]triazolo[4,3-b]pyridazin-6-yl)ethanone O-carbamoyl oxime] |
